Measurements: ChEMBL document CHEMBL1201862, “PubChem BioAssay data set” (2004)
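A five-concentration, 48-hour dose response in 96-well plates underlies each endpoint, interpolated linearly between surrounding concentrations. Here, GI50 denotes the concentration required for 50% inhibition of growth.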 Active and inactive are the calls of the source. Cut-off read from the data, not from the text of the source: active = GI50 up to about 1.1 µM and inactive = higher.

Key:
Assay in all cases: NCI tumour cell line growth inhibition, 48 h
A498 = test system: A498
CAKI-1 = test system: CAKI-1
COLO 205 = test system: COLO 205
EKVX = test system: EKVX
HCC 2998 = test system: HCC 2998
K562 = test system: K562
KM12 = test system: KM12
MCF7 = test system: MCF7
MOLT-4 = test system: MOLT-4
OVCAR-4 = test system: OVCAR-4
OVCAR-5 = test system: OVCAR-5
PC-3 = test system: PC-3
RPMI-8226 = test system: RPMI-8226
SF-268 = test system: SF-268
SF-295 = test system: SF-295
SK-MEL-28 = test system: SK-MEL-28
SK-MEL-5 = test system: SK-MEL-5
SNB-19 = test system: SNB-19
SR = test system: SR
UACC-257 = test system: UACC-257

SMILES | GI50 (A498) | GI50 (CAKI-1) | GI50 (COLO 205) | GI50 (EKVX) | GI50 (HCC 2998) | GI50 (K562) | GI50 (KM12) | GI50 (MCF7) | GI50 (MOLT-4) | GI50 (OVCAR-4) | GI50 (OVCAR-5) | GI50 (PC-3) | GI50 (RPMI-8226) | GI50 (SF-268) | GI50 (SF-295) | GI50 (SK-MEL-28) | GI50 (SK-MEL-5) | GI50 (SNB-19) | GI50 (SR) | GI50 (UACC-257)
COc1ccccc1/C=C/c1ccnc2ccccc12 | 15.4 µM (inactive) | 14.6 µM (inactive) | 17.1 µM (inactive) | 11 µM (inactive) | 17.5 µM (inactive) | 10.7 µM (inactive) | 12.3 µM (inactive) | 4.25 µM (inactive) | 7.87 µM (inactive) | 12.8 µM (inactive) | 17.3 µM (inactive) | 14.3 µM (inactive) | 8.49 µM (inactive) | 14.2 µM (inactive) | 14.2 µM (inactive) | 17.4 µM (inactive) | 13.5 µM (inactive) | 14.3 µM (inactive) | 12.8 µM (inactive) | 16 µM (inactive)
COc1cc(C2CC(C)(O)Oc3cc4c(cc32)OCO4)cc(OC)c1OC (centres undefined) | 4.6 µM (inactive) | 0.417 µM (active) | 0.419 µM (active) | 5.36 µM (inactive) | 1.31 µM (inactive) | 0.386 µM (active) | 0.191 µM (active) | 0.321 µM (active) | 0.451 µM (active) | 0.938 µM (active) | 10.9 µM (inactive) | 0.274 µM (active) | 0.325 µM (active) | 0.962 µM (active) | 0.184 µM (active) | 0.569 µM (active) | 0.208 µM (active) | 0.617 µM (active) | 0.374 µM (active) | 0.822 µM (active)
CCc1nc(N)c2nc(-c3cccs3)oc2n1 | > 10 µM (inactive) | > 100 µM (inactive) | > 100 µM (inactive) | 50.1 µM (inactive) | > 100 µM (inactive) | > 100 µM (inactive) | > 100 µM (inactive) | > 100 µM (inactive) | > 100 µM (inactive) | – | > 100 µM (inactive) | > 100 µM (inactive) | 84.1 µM (inactive) | > 100 µM (inactive) | > 100 µM (inactive) | > 100 µM (inactive) | > 100 µM (inactive) | 9.25 µM (inactive) | 54.8 µM (inactive) | > 100 µM (inactive)
CC1=C2C(=O)OCC23C=COC3(C)O1 (centres undefined) | 43.3 µM (inactive) | 37 µM (inactive) | 21.5 µM (inactive) | 35.7 µM (inactive) | 69.3 µM (inactive) | 31.8 µM (inactive) | 26.9 µM (inactive) | 36.2 µM (inactive) | 21.4 µM (inactive) | 29.4 µM (inactive) | 47.1 µM (inactive) | 38.2 µM (inactive) | 32.5 µM (inactive) | 60.7 µM (inactive) | 41.4 µM (inactive) | 20.4 µM (inactive) | 18 µM (inactive) | 58.9 µM (inactive) | 8.38 µM (inactive) | 32.7 µM (inactive)
N#CC(NNC(=O)c1ccccc1O)c1c(O)ccc2ccccc12 (centres undefined) | 34.7 µM (inactive) | 4.18 µM (inactive) | 13.2 µM (inactive) | 5.66 µM (inactive) | 9.55 µM (inactive) | 2.9 µM (inactive) | 4.84 µM (inactive) | 4.5 µM (inactive) | 2.26 µM (inactive) | 2.58 µM (inactive) | 4.38 µM (inactive) | 4.03 µM (inactive) | 3.48 µM (inactive) | 3.24 µM (inactive) | 4.78 µM (inactive) | 9.33 µM (inactive) | 2.67 µM (inactive) | 13.6 µM (inactive) | 1.46 µM (inactive) | 3.67 µM (inactive)
COc1ccc(C2=Nn3c(nnc3-c3ccccc3)S/C2=C\c2ccc(-c3ccc([N+](=O)[O-])cc3)o2)cc1 | 58.6 µM (inactive) | 51.2 µM (inactive) | 25.8 µM (inactive) | 50.9 µM (inactive) | 28 µM (inactive) | 13.3 µM (inactive) | 23.2 µM (inactive) | 15.1 µM (inactive) | 11.3 µM (inactive) | 30 µM (inactive) | 47.6 µM (inactive) | 27.3 µM (inactive) | 13.1 µM (inactive) | 28.8 µM (inactive) | 26.5 µM (inactive) | 69.7 µM (inactive) | 27.6 µM (inactive) | 33.3 µM (inactive) | 9.62 µM (inactive) | 44.7 µM (inactive)
CC(=O)c1cccc(Nc2nc3ccccc3c3occc23)c1 | 9.98 µM (inactive) | 32.8 µM (inactive) | > 100 µM (inactive) | 22 µM (inactive) | 46.1 µM (inactive) | > 100 µM (inactive) | 49.7 µM (inactive) | 25.1 µM (inactive) | > 100 µM (inactive) | 16.2 µM (inactive) | 53.6 µM (inactive) | 31.3 µM (inactive) | > 100 µM (inactive) | 22.2 µM (inactive) | 16.2 µM (inactive) | 27.3 µM (inactive) | 12.7 µM (inactive) | 20.2 µM (inactive) | 47 µM (inactive) | > 100 µM (inactive)
